Source: paper PMC10198183 (Frontiers in drug discovery, 2022)
Values after ≈ are worked out from the molar mass of the structure shown. Where two headings read alike, the source gives them in different places.

Columns and labels:
C. albicans = experiment: Broth microdilution susceptibility test (CLSI M27-A4), C. albicans; format: cell-based; conditions: RPMI 1640, 30 °C, 24–48 h, mean of triplicate; for MIC: read-out: MIC75 C. albicans
Method: (§1) Broth microdilution susceptibility test: The minimum inhibitory concentrations (MIC75) were determined by the broth microdilution method according to the Clinical and Laboratory Standards Institute (CLSI) M27-A4 standard ([CLSI, 2017])). Briefly, a suspension of C. albicans or C. glabrata culture (~0.5–2.5 × 10^3 cells/ml) was resuspended in RPMI 1640 media (Fisher Catalog number 11875093). The resuspended culture was further incubated with 100 μl of two-fold serially diluted test compounds (100–0.8 μM and 1.0 μM to 7 nM) at 30 °C for 24–48 h. Positive and negative control (wells without antifungal agents and wells without yeast) were conducted. Increased optical density (OD) corresponds to the Candida growth and was quantified by comparison with untreated Candida control samples. The MIC75 of test compounds was determined visually and spectrophotometrically (OD600) after 24–48 h. Experiments were run in triplicate, and data was reported as a mean.

C. glabrata = experiment: Broth microdilution susceptibility test (CLSI M27-A4), C. glabrata; format: cell-based; conditions: RPMI 1640, 30 °C, 24–48 h, mean of triplicate; for MIC: read-out: MIC75 C. glabrata
Method: as §1

human Cyp3A4 = human Cyp3A4 (Homo sapiens, UniProt P08684); conditions: for IC50: read-out: CYP 3A4 IC50, human Cyp3A4 supersomes, 2 μM midazolam, 30 min at 37°C
Sequence of human Cyp3A4 (P08684 2-503 limits assumed): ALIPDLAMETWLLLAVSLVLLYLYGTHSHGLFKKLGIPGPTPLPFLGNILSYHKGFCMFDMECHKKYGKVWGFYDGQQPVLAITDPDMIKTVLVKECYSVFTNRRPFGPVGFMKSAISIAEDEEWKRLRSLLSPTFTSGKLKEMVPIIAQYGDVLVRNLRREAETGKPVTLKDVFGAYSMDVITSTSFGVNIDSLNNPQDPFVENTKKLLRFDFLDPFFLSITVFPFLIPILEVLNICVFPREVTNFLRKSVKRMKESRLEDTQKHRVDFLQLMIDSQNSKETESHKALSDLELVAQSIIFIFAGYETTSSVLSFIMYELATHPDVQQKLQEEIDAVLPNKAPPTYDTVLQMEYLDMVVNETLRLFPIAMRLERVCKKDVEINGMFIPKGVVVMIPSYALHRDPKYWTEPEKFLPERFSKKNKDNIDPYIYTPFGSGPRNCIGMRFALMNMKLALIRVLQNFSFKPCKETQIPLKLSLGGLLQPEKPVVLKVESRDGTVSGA

| Structure (SMILES) | MIC (C. albicans) [µM] | MIC (C. glabrata) [µM] | also measured |
| --- | --- | --- | --- |
| CC(=O)N1CCN(c2ccc(OC[C@@H]3CO[C@@](Cn4ccnc4)(c4ccc(Cl)cc4Cl)O3)cc2)CC1 [Entry 4, (2S, 4R)-Ketoconazole, reference compound] |  |  | MIC (C. albicans; Candida albicans): 0.125 µM (≈ 0.0664 µg/mL); MIC (C. glabrata; Nakaseomyces glabratus): 0.5 µM (≈ 0.266 µg/mL) |
| N#CCS(=O)(=O)N1CCN(c2ccc(OC[C@@H]3CO[C@@](Cn4ccnc4)(c4ccc(Cl)cc4Cl)O3)cc2)CC1 [Entry 3g] | 0.25 (≈ 0.148 µg/mL) | 0.5 (≈ 0.296 µg/mL) |  |
| CCS(=O)(=O)N1CCN(c2ccc(OC[C@@H]3CO[C@@](Cn4ccnc4)(c4ccc(Cl)cc4Cl)O3)cc2)CC1 [Entry 3b] | 0.125 (≈ 0.0727 µg/mL) | 0.5 (≈ 0.291 µg/mL) |  |
| CS(=O)(=O)CS(=O)(=O)N1CCN(c2ccc(OC[C@@H]3CO[C@@](Cn4ccnc4)(c4ccc(Cl)cc4Cl)O3)cc2)CC1 [Entry 3h] | 0.8 (≈ 0.516 µg/mL) | 6.25 (≈ 4.03 µg/mL) |  |
| CC(C)S(=O)(=O)N1CCN(c2ccc(OC[C@@H]3CO[C@@](Cn4ccnc4)(c4ccc(Cl)cc4Cl)O3)cc2)CC1 [Entry 3d] |  |  | MIC75 C. albicans (C. albicans): complete loss of in vitro antifungal activity and N.E.; MIC75 C. glabrata (C. glabrata): complete loss of in vitro antifungal activity and N.E. |
| O=S(=O)(CC(F)F)N1CCN(c2ccc(OC[C@@H]3CO[C@@](Cn4ccnc4)(c4ccc(Cl)cc4Cl)O3)cc2)CC1 [Entry 3l] | 0.062 (≈ 0.0383 µg/mL) | 0.25 (≈ 0.154 µg/mL) | improvement in selectivity (Cyp3A4 versus C. albicans) relative to (±)-Ketoconazole (2) (human Cyp3A4; 3l versus 2): 5 fold; window between Cyp3A4 inhibition and activity against C. albicans (human Cyp3A4; Cyp3A4 IC50 versus C. albicans MIC75): 2.6 fold; IC50 (human Cyp3A4): 162 nM |
| CCCS(=O)(=O)N1CCN(c2ccc(OC[C@@H]3CO[C@@](Cn4ccnc4)(c4ccc(Cl)cc4Cl)O3)cc2)CC1 [Entry 3c] | 0.125 (≈ 0.0744 µg/mL) | 0.5 (≈ 0.298 µg/mL) | IC50 (human Cyp3A4): 75.6 nM |
| O=S(=O)(N1CCN(c2ccc(OC[C@@H]3CO[C@@](Cn4ccnc4)(c4ccc(Cl)cc4Cl)O3)cc2)CC1)C(F)(F)F [Entry 3i] | 0.8 (≈ 0.497 µg/mL) | 1.6 (≈ 0.994 µg/mL) |  |
| O=S(=O)(CC(F)(F)F)N1CCN(c2ccc(OC[C@@H]3CO[C@@](Cn4ccnc4)(c4ccc(Cl)cc4Cl)O3)cc2)CC1 [Entry 3j] | 1.6 (≈ 1.02 µg/mL) | 0.8 (≈ 0.508 µg/mL) | IC50 (human Cyp3A4): 450 nM |
| C[C@@H]1[C@H](O)[C@@H](C)/C=C/C=C/C=C/C=C/C=C/C=C/C=C/[C@H](O[C@@H]2O[C@H](C)[C@@H](O)[C@H](N)[C@@H]2O)C[C@@H]2O[C@](O)(C[C@@H](O)C[C@@H](O)[C@H](O)CC[C@@H](O)C[C@@H](O)CC(=O)O[C@H]1C)C[C@H](O)[C@H]2C(=O)O [Amphotericin B, reference compound] |  |  | MIC (C. albicans; Candida albicans): 0.25 µM (≈ 0.231 µg/mL); MIC (C. glabrata; Nakaseomyces glabratus): 0.25 µM (≈ 0.231 µg/mL) |
| CS(=O)(=O)N1CCN(c2ccc(OC[C@@H]3CO[C@@](Cn4ccnc4)(c4ccc(Cl)cc4Cl)O3)cc2)CC1 [Entry 3a] | 0.125 (≈ 0.0709 µg/mL) |  |  |
| O=S(=O)(CCC(F)(F)F)N1CCN(c2ccc(OC[C@@H]3CO[C@@](Cn4ccnc4)(c4ccc(Cl)cc4Cl)O3)cc2)CC1 [Entry 3k] | 1.6 (≈ 1.04 µg/mL) |  | IC50 (human Cyp3A4): 249 nM; MIC75 C. glabrata (C. glabrata): no effect and N.E. |
| CC(=O)N1CCN(c2ccc(OC[C@H]3CO[C@](Cn4ccnc4)(c4ccc(Cl)cc4Cl)O3)cc2)CC1 (racemic) [Entry 2, (±)-Ketoconazole, reference compound] |  | 0.5 (≈ 0.266 µg/mL) | MIC (C. albicans; Candida albicans): 0.25 µM (≈ 0.133 µg/mL); MIC (C. glabrata; Nakaseomyces glabratus): 0.25 µM (≈ 0.133 µg/mL) |
| O=S(=O)(C1CC1)N1CCN(c2ccc(OCC3COC(Cn4ccnc4)(c4ccc(Cl)cc4Cl)O3)cc2)CC1 (stereo not shown) [Entry 3e] | 0.8 (≈ 0.475 µg/mL) | 0.8 (≈ 0.475 µg/mL) |  |
